What was measured:
adult patients with MDS = details: about; after a decitabine cycle; cited from earlier work
[1] = Chemical stability of decitabine in reconstituted and diluted aqueous infusion fluid; details: for pH: after preparation of the infusion; for Average degradation rate / Maximum degradation (% peak area): 0.1-1 mg/mL; for Average degradation rate: estimate assuming linearity
[2] = 0.1 mg/mL, 0.9% NaCl, Experiment 1: 2-8° C. one hour then room temperature, at 0 h
[3] = 0.1 mg/mL, 0.9% NaCl, Experiment 1: 2-8° C. one hour then room temperature, at 1 h
[4] = 0.1 mg/mL, 0.9% NaCl, Experiment 1: 2-8° C. one hour then room temperature, at 2 h
[5] = 0.1 mg/mL, 0.9% NaCl, Experiment 1: 2-8° C. one hour then room temperature, at 3 h
[6] = 0.1 mg/mL, 0.9% NaCl, Experiment 1: 2-8° C. one hour then room temperature, at 4 h
[7] = 0.1 mg/mL, 0.9% NaCl, Experiment 2: 2-8° C. ten hours then room temperature, at 0 h
[8] = 0.1 mg/mL, 0.9% NaCl, Experiment 2: 2-8° C. ten hours then room temperature, at 10 h
[9] = 0.1 mg/mL, 0.9% NaCl, Experiment 2: 2-8° C. ten hours then room temperature, at 11 h
[10] = 0.1 mg/mL, 0.9% NaCl, Experiment 2: 2-8° C. ten hours then room temperature, at 12 h
[11] = 0.1 mg/mL, 5% Dextrose, Experiment 1: 2-8° C. one hour then room temperature, at 0 h
[12] = 0.1 mg/mL, 5% Dextrose, Experiment 1: 2-8° C. one hour then room temperature, at 1 h
[13] = 0.1 mg/mL, 5% Dextrose, Experiment 1: 2-8° C. one hour then room temperature, at 2 h
[14] = 0.1 mg/mL, 5% Dextrose, Experiment 1: 2-8° C. one hour then room temperature, at 3 h
[15] = 0.1 mg/mL, 5% Dextrose, Experiment 1: 2-8° C. one hour then room temperature, at 4 h
[16] = 0.1 mg/mL, 5% Dextrose, Experiment 2: 2-8° C. ten hours then room temperature, at 0 h
[17] = 0.1 mg/mL, 5% Dextrose, Experiment 2: 2-8° C. ten hours then room temperature, at 10 h
[18] = 0.1 mg/mL, 5% Dextrose, Experiment 2: 2-8° C. ten hours then room temperature, at 11 h
[19] = 0.1 mg/mL, 5% Dextrose, Experiment 2: 2-8° C. ten hours then room temperature, at 12 h
[20] = 0.1 mg/mL, Lactated Ringer's, Experiment 1: 2-8° C. one hour then room temperature, at 0 h
[21] = 0.1 mg/mL, Lactated Ringer's, Experiment 1: 2-8° C. one hour then room temperature, at 1 h
[22] = 0.1 mg/mL, Lactated Ringer's, Experiment 1: 2-8° C. one hour then room temperature, at 2 h
[23] = 0.1 mg/mL, Lactated Ringer's, Experiment 1: 2-8° C. one hour then room temperature, at 3 h
[24] = 0.1 mg/mL, Lactated Ringer's, Experiment 1: 2-8° C. one hour then room temperature, at 4 h
[25] = 0.1 mg/mL, Lactated Ringer's, Experiment 2: 2-8° C. ten hours then room temperature, at 0 h
[26] = 0.1 mg/mL, Lactated Ringer's, Experiment 2: 2-8° C. ten hours then room temperature, at 10 h
[27] = 0.1 mg/mL, Lactated Ringer's, Experiment 2: 2-8° C. ten hours then room temperature, at 11 h
[28] = 0.1 mg/mL, Lactated Ringer's, Experiment 2: 2-8° C. ten hours then room temperature, at 12 h
[29] = about 1.0 mg/mL, 0.9% NaCl, Experiment 1: 2-8° C. one hour then room temperature, at 0 h
[30] = about 1.0 mg/mL, 0.9% NaCl, Experiment 1: 2-8° C. one hour then room temperature, at 1 h
[31] = about 1.0 mg/mL, 0.9% NaCl, Experiment 1: 2-8° C. one hour then room temperature, at 2 h
[32] = about 1.0 mg/mL, 0.9% NaCl, Experiment 1: 2-8° C. one hour then room temperature, at 3 h
[33] = about 1.0 mg/mL, 0.9% NaCl, Experiment 1: 2-8° C. one hour then room temperature, at 4 h
[34] = about 1.0 mg/mL, 0.9% NaCl, Experiment 2: 2-8° C. ten hours then room temperature, at 0 h
[35] = about 1.0 mg/mL, 0.9% NaCl, Experiment 2: 2-8° C. ten hours then room temperature, at 10 h
[36] = about 1.0 mg/mL, 0.9% NaCl, Experiment 2: 2-8° C. ten hours then room temperature, at 11 h
[37] = about 1.0 mg/mL, 0.9% NaCl, Experiment 2: 2-8° C. ten hours then room temperature, at 12 h
[38] = about 1.0 mg/mL, 5% Dextrose, Experiment 1: 2-8° C. one hour then room temperature, at 0 h
[39] = about 1.0 mg/mL, 5% Dextrose, Experiment 1: 2-8° C. one hour then room temperature, at 1 h
[40] = about 1.0 mg/mL, 5% Dextrose, Experiment 1: 2-8° C. one hour then room temperature, at 2 h
[41] = about 1.0 mg/mL, 5% Dextrose, Experiment 1: 2-8° C. one hour then room temperature, at 3 h
[42] = about 1.0 mg/mL, 5% Dextrose, Experiment 1: 2-8° C. one hour then room temperature, at 4 h
[43] = about 1.0 mg/mL, 5% Dextrose, Experiment 2: 2-8° C. ten hours then room temperature, at 0 h
[44] = about 1.0 mg/mL, 5% Dextrose, Experiment 2: 2-8° C. ten hours then room temperature, at 10 h
[45] = about 1.0 mg/mL, 5% Dextrose, Experiment 2: 2-8° C. ten hours then room temperature, at 11 h
[46] = about 1.0 mg/mL, 5% Dextrose, Experiment 2: 2-8° C. ten hours then room temperature, at 12 h
[47] = about 1.0 mg/mL, Lactated Ringer's, Experiment 1: 2-8° C. one hour then room temperature, at 0 h
[48] = about 1.0 mg/mL, Lactated Ringer's, Experiment 1: 2-8° C. one hour then room temperature, at 1 h
[49] = about 1.0 mg/mL, Lactated Ringer's, Experiment 1: 2-8° C. one hour then room temperature, at 2 h
[50] = about 1.0 mg/mL, Lactated Ringer's, Experiment 1: 2-8° C. one hour then room temperature, at 3 h
[51] = about 1.0 mg/mL, Lactated Ringer's, Experiment 1: 2-8° C. one hour then room temperature, at 4 h
[52] = about 1.0 mg/mL, Lactated Ringer's, Experiment 2: 2-8° C. ten hours then room temperature, at 0 h
[53] = about 1.0 mg/mL, Lactated Ringer's, Experiment 2: 2-8° C. ten hours then room temperature, at 10 h
[54] = about 1.0 mg/mL, Lactated Ringer's, Experiment 2: 2-8° C. ten hours then room temperature, at 11 h
[55] = about 1.0 mg/mL, Lactated Ringer's, Experiment 2: 2-8° C. ten hours then room temperature, at 12 h

SMILES: Nc1ncn([C@H]2C[C@H](O)[C@@H](CO)O2)c(=O)n1 [Decitabine, 5-aza-2′-deoxycytidine]
- Neutrophil nadir (delayed myelotoxicity, primary toxicity) (adult patients with MDS): 18 to 24 days
- Decitabine Content (%) [1, 2]: 97.5%
- Total Impurities (%) [1, 2]: (2.5%)
- Decitabine Content (%) [1, 3]: 96.9%
- Total Impurities (%) [1, 3]: (3.2%)
- Decitabine Content (%) [1, 4]: 95.7%
- Total Impurities (%) [1, 4]: (4.3%)
- Decitabine Content (%) [1, 5]: 94.1%
- Total Impurities (%) [1, 5]: (6.0%)
- Decitabine Content (%) [1, 6]: 92.5%
- Total Impurities (%) [1, 6]: (7.7%)
- Decitabine Content (%) [1, 7]: 97.8%
- Total Impurities (%) [1, 7]: (2.2%)
- Decitabine Content (%) [1, 8]: 93.4%
- Total Impurities (%) [1, 8]: (6.7%)
- Decitabine Content (%) [1, 9]: 92.3%
- Total Impurities (%) [1, 9]: (7.7%)
- Decitabine Content (%) [1, 10]: 90.8%
- Total Impurities (%) [1, 10]: (9.2%)
- pH ([1]; 0.1 mg/mL, 0.9% NaCl): 6.7
- Decitabine Content (%) [1, 11]: 97.4%
- Total Impurities (%) [1, 11]: (2.6%)
- Decitabine Content (%) [1, 12]: 97.2%
- Total Impurities (%) [1, 12]: (2.7%)
- Decitabine Content (%) [1, 13]: 96.4%
- Total Impurities (%) [1, 13]: (3.6%)
- Decitabine Content (%) [1, 14]: 94.9%
- Total Impurities (%) [1, 14]: (5.1%)
- Decitabine Content (%) [1, 15]: 93.6%
- Total Impurities (%) [1, 15]: (6.4%)
- Decitabine Content (%) [1, 16]: 98.2%
- Total Impurities (%) [1, 16]: (1.9%)
- Decitabine Content (%) [1, 17]: 94.9%
- Total Impurities (%) [1, 17]: (5.2%)
- Decitabine Content (%) [1, 18]: 94.5%
- Total Impurities (%) [1, 18]: (5.6%)
- Decitabine Content (%) [1, 19]: 93.3%
- Total Impurities (%) [1, 19]: (6.7%)
- pH ([1]; 0.1 mg/mL, 5% Dextrose): 6.9
- Decitabine Content (%) [1, 20]: 98.3%
- Total Impurities (%) [1, 20]: (1.7%)
- Decitabine Content (%) [1, 21]: 98.1%
- Total Impurities (%) [1, 21]: (1.9%)
- Decitabine Content (%) [1, 22]: 97.0%
- Total Impurities (%) [1, 22]: (3.0%)
- Decitabine Content (%) [1, 23]: 95.9%
- Total Impurities (%) [1, 23]: (4.1%)
- Decitabine Content (%) [1, 24]: 94.9%
- Total Impurities (%) [1, 24]: (5.2%)
- Decitabine Content (%) [1, 25]: 98.0%
- Total Impurities (%) [1, 25]: (2.1%)
- Decitabine Content (%) [1, 26]: 93.4%
- Total Impurities (%) [1, 26]: (6.7%)
- Decitabine Content (%) [1, 27]: 92.6%
- Total Impurities (%) [1, 27]: (7.4%)
- Decitabine Content (%) [1, 28]: 91.8%
- Total Impurities (%) [1, 28]: (8.3%)
- pH ([1]; 0.1 mg/mL, Lactated Ringer's): 6.7
- Average degradation rate ([1]; @ 4° C.): 0.40 %/hr
- Average degradation rate ([1]; @ Room Temperature): 2.44 %/hr
- Maximum degradation (% peak area) ([1]; S1 (6 hr stored @4° C. + 3 hr @ RT during infusion)): 9.72 % peak area
- Maximum degradation (% peak area) ([1]; S2 (7 hr stored @4° C. + 3 hr @ RT during infusion)): 10.12 % peak area
- Maximum degradation (% peak area) ([1]; S3 (7 hr stored @4° C. + 2 hr @ RT during infusion)): 7.68 % peak area
- Maximum degradation (% peak area) ([1]; S4 (8 hr stored @4° C. + 3 hr @ RT during infusion)): 10.52 % peak area
- Maximum degradation (% peak area) ([1]; S5 (8 hr stored @4° C. + 2 hr @ RT during infusion)): 8.08 % peak area
- Maximum degradation (% peak area) ([1]; S6 (9 hr stored @4° C. + 2 hr @ RT during infusion)): 8.48 % peak area
- Maximum degradation (% peak area) ([1]; S7 (10 hr stored @4° C. + 2 hr @ RT during infusion)): 8.88 % peak area
- pH deviation from neutral pH after preparation of the infusion ([1]; Table 1 and Table 2 solutions): ≤ 0.3 pH units
- Decitabine Content (%) [1, 29]: 98.0%
- Total Impurities (%) [1, 29]: (2.1%)
- Decitabine Content (%) [1, 30]: 96.8%
- Total Impurities (%) [1, 30]: (3.3%)
- Decitabine Content (%) [1, 31]: 94.8%
- Total Impurities (%) [1, 31]: (5.2%)
- Decitabine Content (%) [1, 32]: 92.8%
- Total Impurities (%) [1, 32]: (7.3%)
- Decitabine Content (%) [1, 33]: 91.1%
- Total Impurities (%) [1, 33]: (9.0%)
- Decitabine Content (%) [1, 34]: 97.4%
- Total Impurities (%) [1, 34]: (2.7%)
- Decitabine Content (%) [1, 35]: 93.4%
- Total Impurities (%) [1, 35]: (6.7%)
- Decitabine Content (%) [1, 36]: 92.5%
- Total Impurities (%) [1, 36]: (7.6%)
- Decitabine Content (%) [1, 37]: 90.8%
- Total Impurities (%) [1, 37]: (9.2%)
- pH ([1]; about 1.0 mg/mL, 0.9% NaCl): 6.7
- Decitabine Content (%) [1, 38]: 98.0%
- Total Impurities (%) [1, 38]: (2.0%)
- Decitabine Content (%) [1, 39]: 97.0%
- Total Impurities (%) [1, 39]: (3.1%)
- Decitabine Content (%) [1, 40]: 95.6%
- Total Impurities (%) [1, 40]: (4.4%)
- Decitabine Content (%) [1, 41]: 93.7%
- Total Impurities (%) [1, 41]: (6.4%)
- Decitabine Content (%) [1, 42]: 91.9%
- Total Impurities (%) [1, 42]: (8.1%)
- Decitabine Content (%) [1, 43]: 97.7%
- Total Impurities (%) [1, 43]: (2.4%)
- Decitabine Content (%) [1, 44]: 94.5%
- Total Impurities (%) [1, 44]: (5.5%)
- Decitabine Content (%) [1, 45]: 93.9%
- Total Impurities (%) [1, 45]: (6.1%)
- Decitabine Content (%) [1, 46]: 93.0%
- Total Impurities (%) [1, 46]: (7.1%)
- pH ([1]; about 1.0 mg/mL, 5% Dextrose): 7.1
- Decitabine Content (%) [1, 47]: 98.1%
- Total Impurities (%) [1, 47]: (2.0%)
- Decitabine Content (%) [1, 48]: 97.3%
- Total Impurities (%) [1, 48]: (2.7%)
- Decitabine Content (%) [1, 49]: 96.2%
- Total Impurities (%) [1, 49]: (3.8%)
- Decitabine Content (%) [1, 50]: 95.1%
- Total Impurities (%) [1, 50]: (4.9%)
- Decitabine Content (%) [1, 51]: 93.7%
- Total Impurities (%) [1, 51]: (6.4%)
- Decitabine Content (%) [1, 52]: 98.0%
- Total Impurities (%) [1, 52]: (2.1%)
- Decitabine Content (%) [1, 53]: 94.1%
- Total Impurities (%) [1, 53]: (5.9%)
- Decitabine Content (%) [1, 54]: 93.3%
- Total Impurities (%) [1, 54]: (6.8%)
- Decitabine Content (%) [1, 55]: 91.8%
- Total Impurities (%) [1, 55]: (8.2%)
- pH ([1]; about 1.0 mg/mL, Lactated Ringer's): 6.8
- Visual inspection of solutions ([1]; all reconstituted and diluted solutions): clear and colorless
- Drug content in the infusion solution during infusion ([1]; infusions prepared and stored as instructed): above 90%
